Experimental data published in publication PMC12542666, “Mechanistic insights into the dimethylsulfoniopropionate synthesis enzyme BurB” (Applied and Environmental Microbiology, 2025).
Like-named read-outs stand apart in the source and are kept apart here.

Experiments:
BurB = type: biochemical, Burkholderia thailandensis
[1] = target: BurB from Burkholderia thailandensis (Burkholderia thailandensis); assay: SEC

## CSCC[C@H](N)C(=O)O [Met]
BurB; pH 9.0, 40 °C
  Km: 16.6 mM

## C[S+](CC[C@H](N)C(=O)O)C[C@H]1O[C@@H](n2cnc3c(N)ncnc32)[C@H](O)[C@@H]1O (stereo partly drawn) [SAM]
BurB
  Km: 1.8 mM

## BurB from Burkholderia thailandensis (enzyme)
[1]
  stoichiometry N: 4
